In the assay the target is T1, human TNFα (Homo sapiens, UniProt P01375).
T1 construct: purchased Biosource, Camarillo, Calif
As to the kind of experiment: p55 Receptor/IgG Fusion Protein Binding Assay (inhibition of TNFα capture by p55-Ig coated plate). As to conditions: peptide 1 mM; TNFα 25 ng/ml; read-out: inhibition of binding of TNFα to p55TNFr-IgG chimeric construct. The method, then: This assay was designed to identify peptides which bind to human TNFα and thereby prevent the capture of the TNFα by a microtiter plate coated with p55-Ig fusion protein. A constant concentration of human TNFα is preincubated with the test peptide and then incubated on the p55-Ig coated microtiter wells. Bound TNFα is detected using a specific antisera and an alkaline phosphatase-conjugated probe.
A 96-well, U-bottom polyvinylchloride microtiter plate was coated with 50 μl/well of p55-Ig fusion protein at 5 μg/ml in 0.01M sodium phosphate, 0.15M sodium chloride (PBS) by incubation overnight at 4° C. or 2 hours at 37° C. The fusion protein, which consists of a p55 TNF receptor protein portion and an IgG portion, can be produced as disclosed in U.S. application Ser. No. 08/010,406 filed Jan. 29, 1993 which is incorporated herein by reference. The plate was washed three times with 0.05% Tween-20 in PBS, then blocked, by adding 150 μl/well of assay buffer (10 mM N-2-hydroxyethylpiperazine-N'-[…] (HEPES) pH 7.2, containing 0.1% porcine gelatin, 0.1% Tween-80, and 0.01% sodium azide) and continuing incubation for 1 hour at 37° C. or at 4° C. for 1-7 days.
Lyophilized peptides to be tested were weighed in tared 12×75 mm polystyrene tubes and reconstituted to a concentration of 1.2 mM with assay buffer. Each suspension was sonicated in a water bath for 1-5 minutes and vortexed 15-30 seconds to disperse large particles. Serial dilutions of each peptide suspension were prepared using assay buffer in a 96-well polystyrene microtiter plate. Additional wells received Fab fragment of the mouse/human monoclonal anti-human TNFα antibody cA2 (positive control) or assay buffer (negative control). […] The polystyrene dilution plate was then sealed and incubated 1 hour at room temperature on an orbital mixer set at moderate speed.
Following the sample preincubation, blocker was discarded from the p55-Ig coated plate and blotted dry. Aliquots (50 μl) of each peptide or control were transferred into duplicate wells on the p55-Ig coated plate which was then sealed and incubated i hour at 37° C. Duplicate wells containing only assay buffer were included as a plate blank. After incubation the p55-Ig plate was washed three times with 0.05% Tween-20 in PBS.
To detect TNFα captured by the p55-Ig plate, all wells were incubated in succession with polyclonal rabbit anti-human TNFα (Genzyme, Boston, Mass.; 1:500 in assay buffer, 50 μl/well), biotinylated goat anti-rabbit Ig (H&L) (Vector Laboratories, Burlingame, Calif.; 1 μg/ml in assay buffer, 50 μl/well) and streptavidin-alkaline phosphatase conjugate (Pierce, Rockford, Ill.; 1 μg/ml in assay buffer, 50 μl/well). All incubations were for 1 hour at 37° C. and after each incubation the plate was washed three times with 0.05% Tween-20 in PBS. Fifty microliters of alkaline phosphatase substrate solution (alkaline buffer (Sigma, St. Louis, Mo.) diluted 1:500 in deionized water plus one 5 mg tablet of p-nitrophenyl phosphate (Sigma, St. Louis, Mo.) per 5 ml of diluted buffer) was added to all wells and incubation continued for 20 minutes at room temperature. Color development was stopped by adding to all wells 50 μl of 3N sodium hydroxide. The optical density (OD) at 405 nm was measured on a microtiter plate reader (Molecular Devices Vmax plate reader), with the plate blank wells subtracted as background. The activity of each peptide was then expressed as the percent inhibition of TNFα capture by the p55-Ig plate, relative to the amount of TNFα captured in wells containing only assay buffer (negative control), as follows: % inhibition=100-((mean OD peptide/mean OD negative control)×100).
The inhibition of binding of TNFα to p55TNFr-IgG chimeric construct was performed as described above using several embodiments of the invention. The peptides were tested at a concentration of 1 mM.

Each structure is given as a SMILES string. Where a SMILES comes first, the peptide text is derived from it.

T1 sequence (P01375 77-233 limits assumed): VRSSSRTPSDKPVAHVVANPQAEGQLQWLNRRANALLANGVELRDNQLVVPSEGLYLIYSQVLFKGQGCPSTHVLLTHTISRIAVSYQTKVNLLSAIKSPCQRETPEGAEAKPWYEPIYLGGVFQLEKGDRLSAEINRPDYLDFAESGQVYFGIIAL

In the case of `CC[C@H](C)[C@H](NC(=O)[C@H](CCC(N)=O)NC(=O)[C@@H]1CCCN1C(=O)[C@H](CC(C)C)NC(=O)[C@H](C)NC(=O)[C@@H](N)CC(C)C)C(=O)N[C@@H](CCC(=O)O)C(=O)N[C@@H](CC(N)=O)C(=O)N[C@H](C(=O)N[C@@H](CCCCN)C(=O)NCC(=O)N[C@H](C(=O)N[C@@H](CCC(=O)O)C(=O)N[C@@H](CC(=O)O)C(=O)N[C@@H](CO)C(N)=O)[C@@H](C)O)C(C)C` [SEQ ID NO:22, Leucyl-alanyl-leucyl-prolyl-glutaminyl-isoleucyl-glutamyl-asparaginyl-valyl-lysyl-glycyl-threonyl-glutamyl-aspartyl-serine Amide] (H-LALPQIENVKGTEDS-NH2), the inhibition at 1000 µM worked out at 34%.

Take `CC[C@H](C)[C@H](NC(=O)[C@H](CCC(N)=O)NC(=O)[C@@H]1CCCN1)C(=O)N[C@@H](CCC(=O)O)C(=O)N[C@@H](CC(N)=O)C(=O)N[C@H](C(=O)N[C@@H](CCCCN)C(=O)NCC(=O)N[C@H](C(=O)N[C@@H](CCC(=O)O)C(=O)N[C@@H](CC(N)=O)C(=O)N[C@@H](CO)C(=O)NCC(=O)N[C@H](C(=O)N[C@H](C(N)=O)[C@@H](C)O)[C@@H](C)O)[C@@H](C)O)C(C)C` [SEQ ID NO:23, Prolyl-glutaminyl-isoleucyl-glutamyl-asparaginyl-valyl-lysyl-glycyl-threonyl-glutamyl-asparaginyl-seryl-glycyl-threonyl-threonine Amide] (H-PQIENVKGTENSGTT-NH2): the inhibition at 1000 µM was 52%.

As to `CC(C)C[C@H](NC(=O)[C@H](C)NC(=O)[C@H](CC(C)C)NC(=O)[C@H](CO)NC(=O)[C@H](C)NC(=O)[C@H](CC(N)=O)NC(=O)[C@H](Cc1ccccc1)NC(=O)[C@H](C)NC(=O)[C@H](CCC(N)=O)NC(=O)[C@H](Cc1ccccc1)NC(=O)[C@H](CC(C)C)NC(=O)[C@H](CC(N)=O)NC(=O)[C@H](CCC(=O)O)NC(=O)[C@@H](N)CO)C(=O)N[C@@H](CC(N)=O)C(N)=O` [SEQ ID NO:24] (H-SENLFQAFNASLALN-NH2), the inhibition at 1000 µM was 21%.

In the case of `CC(C)C[C@H](NC(=O)[C@H](CCCNC(=N)N)NC(=O)[C@H](C)NC(=O)[C@@H](NC(=O)[C@H](CO)NC(=O)CNC(=O)[C@@H]1CCCN1C(=O)[C@H](CCC(=O)O)NC(=O)[C@@H]1CCCN1C(=O)[C@H](C)NC(=O)[C@H](Cc1ccc(O)cc1)NC(=O)[C@@H]1CCCN1C(=O)[C@@H](NC(=O)[C@@H](N)Cc1ccccc1)[C@@H](C)O)[C@@H](C)O)C(=O)N[C@@H](CCCNC(=N)N)C(N)=O` [SEQ ID NO:25] (H-FTPYAPEPGSTARLR-NH2), the inhibition at 1000 µM amounted to 69%.

For the compound `CC(C)C[C@H](NC(=O)[C@H](CCCNC(=N)N)NC(=O)[C@H](C)NC(=O)[C@@H](NC(=O)[C@H](CO)NC(=O)CNC(=O)[C@@H]1CCCN1C(=O)[C@H](CCC(=O)O)NC(=O)[C@@H]1CCCN1C(=O)[C@H](C)NC(=O)[C@@H](N)Cc1ccc(O)cc1)[C@@H](C)O)C(=O)N[C@@H](CCCNC(=N)N)C(=O)N[C@@H](CCC(=O)O)C(=O)N[C@@H](Cc1ccc(O)cc1)C(=O)N[C@@H](Cc1ccc(O)cc1)C(N)=O` [SEQ ID NO:26] (H-YAPEPGSTARLREYY-NH2), the inhibition at 1000 µM was determined as 71%.

On to `CC(C)C[C@H](NC(=O)[C@H](CCCNC(=N)N)NC(=O)[C@H](C)NC(=O)[C@@H](NC(=O)[C@H](CO)NC(=O)CNC(=O)[C@@H]1CCCN1C(=O)[C@@H](N)CCC(=O)O)[C@@H](C)O)C(=O)N[C@@H](CCCNC(=N)N)C(=O)N[C@@H](CCC(=O)O)C(=O)N[C@@H](Cc1ccc(O)cc1)C(=O)N[C@@H](Cc1ccc(O)cc1)C(=O)N[C@@H](CC(=O)O)C(=O)N[C@@H](CCC(N)=O)C(=O)N[C@H](C(N)=O)[C@@H](C)O` [SEQ ID NO:27] (H-EPGSTARLREYYDQT-NH2), for which the inhibition at 1000 µM turned out to be 78%.

With `CSCC[C@H](NC(=O)[C@H](CCC(N)=O)NC(=O)[C@H](C)NC(=O)[C@@H](NC(=O)[C@H](CCC(N)=O)NC(=O)[C@H](CC(=O)O)NC(=O)[C@H](Cc1ccc(O)cc1)NC(=O)[C@H](Cc1ccc(O)cc1)NC(=O)[C@H](CCC(=O)O)NC(=O)[C@H](CCCNC(=N)N)NC(=O)[C@H](CC(C)C)NC(=O)[C@H](CCCNC(=N)N)NC(=O)[C@H](C)NC(=O)[C@@H](NC(=O)[C@@H](N)CO)[C@@H](C)O)[C@@H](C)O)C(N)=O` [SEQ ID NO:28] (H-STARLREYYDQTAQM-NH2), the inhibition at 1000 µM was 72%.

For `CSCC[C@H](NC(=O)[C@H](CCC(N)=O)NC(=O)[C@H](C)NC(=O)[C@@H](NC(=O)[C@H](CCC(N)=O)NC(=O)[C@H](CC(=O)O)NC(=O)[C@H](Cc1ccc(O)cc1)NC(=O)[C@H](Cc1ccc(O)cc1)NC(=O)[C@H](CCC(=O)O)NC(=O)[C@H](CCCNC(=N)N)NC(=O)[C@H](CC(C)C)NC(=O)[C@@H](N)CCCNC(=N)N)[C@@H](C)O)C(=O)N[C@@H](C)C(=O)N[C@@H](C)C(=O)N[C@@H](CO)C(N)=O` [SEQ ID NO:29] (H-RLREYYDQTAQMAAS-NH2), the inhibition at 1000 µM was determined as 53%.

In the case of `CSCC[C@H](NC(=O)[C@H](CCC(N)=O)NC(=O)[C@H](C)NC(=O)[C@@H](NC(=O)[C@H](CCC(N)=O)NC(=O)[C@H](CC(=O)O)NC(=O)[C@H](Cc1ccc(O)cc1)NC(=O)[C@H](Cc1ccc(O)cc1)NC(=O)[C@@H](N)CCC(=O)O)[C@@H](C)O)C(=O)N[C@@H](C)C(=O)N[C@@H](C)C(=O)N[C@@H](CO)C(=O)N[C@@H](CCCCN)C(=O)N[C@@H](C)C(=O)N[C@@H](CO)C(N)=O` [SEQ ID NO:30] (H-EYYDQTAQMAASKAS-NH2), the inhibition at 1000 µM came out at 59%.

As to `CC(C)[C@H](NC(=O)[C@H](CCCCN)NC(=O)[C@H](C)NC(=O)[C@@H](N)Cc1c[nH]cn1)C(=O)N[C@@H](Cc1ccccc1)C(=O)N[C@@H](C)C(=O)N[C@H](C(=O)N[C@@H](CCCCN)C(=O)N[C@H](C(=O)N[C@@H](CO)C(=O)N[C@@H](CC(=O)O)C(=O)N[C@H](C(=O)N[C@H](C(=O)N[C@@H](C)C(=O)N[C@@H](CC(=O)O)C(N)=O)C(C)C)[C@@H](C)O)[C@@H](C)O)[C@@H](C)O` [SEQ ID NO:31] (H-HAKVFATKTSDTVAD-NH2), the inhibition at 1000 µM came out at 68%.

As for `CC(C)[C@H](N)C(=O)N[C@@H](Cc1ccccc1)C(=O)N[C@@H](C)C(=O)N[C@H](C(=O)N[C@@H](CCCCN)C(=O)N[C@H](C(=O)N[C@@H](CO)C(=O)N[C@@H](CC(=O)O)C(=O)N[C@H](C(=O)N[C@H](C(=O)N[C@@H](C)C(=O)N[C@@H](CC(=O)O)C(=O)N[C@@H](CO)C(=O)N[C@@H](C)C(=O)N[C@@H](CCC(=O)O)C(N)=O)C(C)C)[C@@H](C)O)[C@@H](C)O)[C@@H](C)O` [SEQ ID NO:32] (H-VFATKTSDTVADSAE-NH2), the inhibition at 1000 µM stood at 64%.

Turning to `CC(C)[C@H](NC(=O)[C@@H](NC(=O)[C@H](CC(=O)O)NC(=O)[C@H](CO)NC(=O)[C@@H](NC(=O)[C@H](CCCCN)NC(=O)[C@@H](N)[C@@H](C)O)[C@@H](C)O)[C@@H](C)O)C(=O)N[C@@H](C)C(=O)N[C@@H](CC(=O)O)C(=O)N[C@@H](CO)C(=O)N[C@@H](C)C(=O)N[C@@H](CCC(=O)O)C(=O)N[C@@H](CC(=O)O)C(=O)N[C@@H](CO)C(=O)N[C@H](C(N)=O)[C@@H](C)O` [SEQ ID NO:33] (H-TKTSDTVADSAEDST-NH2), the inhibition at 1000 µM worked out at 67%.

As to `CSCC[C@H](NC(=O)[C@H](CO)NC(=O)[C@H](CCCNC(=N)N)NC(=O)[C@@H](NC(=O)[C@@H]1CCCN1C(=O)[C@H](CO)NC(=O)[C@@H](NC(=O)[C@H](CO)NC(=O)[C@@H](NC(=O)[C@H](C)N)[C@@H](C)O)[C@@H](C)O)[C@@H](C)O)C(=O)N[C@@H](C)C(=O)N1CCC[C@H]1C(=O)NCC(=O)N[C@@H](C)C(=O)N[C@H](C(N)=O)C(C)C` [SEQ ID NO:54] (H-ATSTSPTRSMAPGAV-NH2), the inhibition at 1000 µM came out at 52%.

The values above are taken from patent US5486595A, “Tumor necrosis factor inhibitors” (Centecor, Inc., priority 1994, dated 1996).
